This passage reports inhibition results from PMC9516332 (Frontiers in Oncology, 2022).

Common to all, as to assay: Kinase panel profiling at 1 µmol/L (MSA or IMAP), percentage inhibition
Holding throughout (type): biochemical

Test [1] addresses panel of 255 wild-type kinases (Homo sapiens, UniProt Q9H0K1). The note with it: read-out: %-inhibition at 1 µmol/L, QIK.
The target of test [2] is panel of 255 wild-type kinases (Homo sapiens, UniProt P05129). Conditions: read-out: %-inhibition at 1 µmol/L, PKCγ.
Test [3] concerns the target panel of 255 wild-type kinases (Homo sapiens, UniProt P28482). Conditions: read-out: %-inhibition at 1 µmol/L, Erk2.
Test [4] has as its target panel of 255 wild-type kinases (Homo sapiens, UniProt Q9BYP7). The note with it: read-out: %-inhibition at 1 µmol/L, WNK3.
For test [5], the target named is T1, panel of 255 wild-type kinases (Homo sapiens, UniProt O14757).
T1 sequence (O14757 1-476): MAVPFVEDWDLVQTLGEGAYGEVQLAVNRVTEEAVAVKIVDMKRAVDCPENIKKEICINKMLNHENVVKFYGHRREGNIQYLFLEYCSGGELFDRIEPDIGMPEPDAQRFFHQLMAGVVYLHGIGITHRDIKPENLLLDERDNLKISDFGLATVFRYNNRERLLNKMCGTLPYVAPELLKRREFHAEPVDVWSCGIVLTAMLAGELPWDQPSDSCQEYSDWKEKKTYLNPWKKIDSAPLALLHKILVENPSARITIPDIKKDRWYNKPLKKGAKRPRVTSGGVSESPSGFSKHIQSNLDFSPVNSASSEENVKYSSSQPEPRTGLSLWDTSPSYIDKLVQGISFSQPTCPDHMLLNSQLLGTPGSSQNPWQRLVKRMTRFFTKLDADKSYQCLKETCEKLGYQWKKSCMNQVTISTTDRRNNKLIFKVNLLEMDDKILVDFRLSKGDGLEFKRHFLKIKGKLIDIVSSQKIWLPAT
Conditions: read-out: %-inhibition CHK1.

Test [6] concerns the target T2, panel of 255 wild-type kinases (Homo sapiens, UniProt Q92630).
T2 sequence (Q92630 1-601): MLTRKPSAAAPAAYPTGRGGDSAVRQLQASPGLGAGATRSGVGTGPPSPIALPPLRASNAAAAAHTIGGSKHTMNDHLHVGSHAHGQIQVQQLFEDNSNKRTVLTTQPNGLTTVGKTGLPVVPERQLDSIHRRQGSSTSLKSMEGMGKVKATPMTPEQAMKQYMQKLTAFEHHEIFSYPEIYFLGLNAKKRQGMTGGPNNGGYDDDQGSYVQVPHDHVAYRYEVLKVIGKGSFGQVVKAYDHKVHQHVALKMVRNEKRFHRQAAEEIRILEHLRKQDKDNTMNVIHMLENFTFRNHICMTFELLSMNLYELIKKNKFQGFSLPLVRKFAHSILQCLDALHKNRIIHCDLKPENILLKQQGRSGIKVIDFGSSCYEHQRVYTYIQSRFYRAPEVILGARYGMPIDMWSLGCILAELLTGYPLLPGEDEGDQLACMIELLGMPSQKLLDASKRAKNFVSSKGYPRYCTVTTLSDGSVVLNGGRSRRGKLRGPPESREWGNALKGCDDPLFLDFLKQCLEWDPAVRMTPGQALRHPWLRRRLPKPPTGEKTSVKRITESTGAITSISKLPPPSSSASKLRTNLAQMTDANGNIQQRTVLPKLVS
Conditions: read-out: %-inhibition at 1 µmol/L, DYRK2.

Test [7] addresses T3, panel of 255 wild-type kinases (Homo sapiens, UniProt P15735).
T3 sequence (P15735 1-406): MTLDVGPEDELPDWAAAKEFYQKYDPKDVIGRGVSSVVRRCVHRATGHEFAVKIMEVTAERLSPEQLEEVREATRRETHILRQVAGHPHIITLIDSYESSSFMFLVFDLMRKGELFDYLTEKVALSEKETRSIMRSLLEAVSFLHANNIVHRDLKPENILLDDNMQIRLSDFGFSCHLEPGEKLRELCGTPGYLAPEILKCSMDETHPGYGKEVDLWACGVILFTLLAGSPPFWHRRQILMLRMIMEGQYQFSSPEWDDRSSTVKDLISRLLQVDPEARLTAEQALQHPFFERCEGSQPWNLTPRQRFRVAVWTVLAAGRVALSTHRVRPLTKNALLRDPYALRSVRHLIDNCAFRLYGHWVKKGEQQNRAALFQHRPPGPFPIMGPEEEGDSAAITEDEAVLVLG
Conditions: read-out: %-inhibition at 1 µmol/L, PHKG2.

Test [8] has as its target panel of 255 wild-type kinases (Homo sapiens, UniProt P27361). The note with it: read-out: %-inhibition at 1 µmol/L, Erk1.
The target of test [9] is panel of 255 wild-type kinases (Homo sapiens, UniProt P22455). The note with it: read-out: %-inhibition at 1 µmol/L, FGFR4.
Test [10] addresses panel of 255 wild-type kinases (Homo sapiens, UniProt Q8N568). Conditions: read-out: %-inhibition at 1 µmol/L, DCAMKL2.
In test [11] the target is panel of 255 wild-type kinases (Homo sapiens, UniProt Q16644). The note with it: read-out: %-inhibition, MAPKAPK3.
The target in test [12] is panel of 255 wild-type kinases (Homo sapiens, UniProt P49761). Conditions: read-out: %-inhibition at 1 µmol/L, CLK3.
In test [13] the target is panel of 255 wild-type kinases (Homo sapiens, UniProt Q9P286). The note with it: read-out: %-inhibition, PAK5.
Test [14] concerns the target panel of 255 wild-type kinases (Homo sapiens, UniProt P51812). Conditions: read-out: %-inhibition at 1 µmol/L, RSK2.
In test [15] the target is panel of 255 wild-type kinases (Homo sapiens, UniProt P11309). Conditions: read-out: %-inhibition at 1 µmol/L, PIM1.
Setting [16] is: kinase QIK, 1 µmol/L single concentration.
The mark [17] stands for this setting: kinase PKCγ, 1 µmol/L single concentration.
Setting [18] is: kinase Erk2, 1 µmol/L single concentration.
The mark [19] stands for this setting: kinase WNK3, 1 µmol/L single concentration.
The mark [20] stands for this setting: CHK1 kinase assay, 1 µmol/L single concentration.
Setting [21] is: kinase DYRK2, 1 µmol/L single concentration.
Where [22] appears, read: kinase PHKG2, 1 µmol/L single concentration.
The mark [23] stands for this setting: kinase Erk1, 1 µmol/L single concentration.
[24] abbreviates: kinase FGFR4, 1 µmol/L single concentration.
[25] abbreviates: kinase DCAMKL2, 1 µmol/L single concentration.
Where [26] appears, read: MAPKAPK3, 1 µmol/L single concentration.
Setting [27] is: kinase CLK3, 1 µmol/L single concentration.
[28] abbreviates: PAK5, 1 µmol/L single concentration.
[29] abbreviates: kinase RSK2, 1 µmol/L single concentration.
Setting [30] is: kinase PIM1, 1 µmol/L single concentration.

Read-outs that look alike come from different tables or passages of the source.

With `Cn1cnc2c(F)c(Nc3ccc(Br)cc3Cl)c(C(=O)NOCCO)cc21` [selumetinib], the inhibition at 1 µM in test [1] (setting [16]) was -4%; in [2] (setting [17]), -0.133%; in [3] (setting [18]), -4.4%; in test [4] (setting [19]) it was -1.43%; in [5] (setting [20]), 2.73%; in test [6] (setting [21]) it was -2.7%. Moreover, the inhibition at 1 µM in test [7] (setting [22]) is 3.3%; in test [8] (setting [23]), -4.67%; in test [9] (setting [24]), 6.37%; in test [10] (setting [25]), 0.902%; in [11] (setting [26]), -14%; in [12] (setting [27]) it was 7.48%. Also, the inhibition at 1 µM is 0.473% in test [13] (setting [28]), -1.52% in [14] (setting [29]) and -6% in test [15] (setting [30]).

Turning to `CNC(=O)c1ccc(-c2cnc3ncc(Cc4ccc5ncccc5c4)n3n2)cc1F` [capmatinib], the inhibition at 1 µM is -2.24% in [1]; 0.161% in [2]; 1.14% in test [3]; -1.77% in test [4]; 0.209% in [5]; 8% in test [6]. The inhibition at 1 µM in test [7] is 0.266%; in test [8], 2.84%; in test [9], 8%; in [10], -1.61%; in [11], -11%; in test [12], 8%. The inhibition at 1 µM in [13] was 0.765%; in test [14], -3%; in test [15], -9%.

Regarding `COC(=O)N[C@@H](C)CNc1nccc(-c2cn(C(C)C)nc2-c2cc(Cl)cc(NS(C)(=O)=O)c2F)n1` [encorafenib], the inhibition at 1 µM in test [1] (setting [16]) was -0.749%; in test [2] (setting [17]) it was 4%; in [3] (setting [18]), 2.55%; in test [4] (setting [19]), -1.55%; in test [5] (setting [20]), 14%; in test [6] (setting [21]), 11%. Also, the inhibition at 1 µM in test [7] (setting [22]) was -1.79%; in [8] (setting [23]), -0.942%; in test [9] (setting [24]), 4.23%; in test [10] (setting [25]), -12%; in test [11] (setting [26]), -15%; in [12] (setting [27]), 4.44%. The inhibition at 1 µM was 0.399% in test [13] (setting [28]), 3.78% in test [14] (setting [29]) and 10% in test [15] (setting [30]).

For the molecule `Cc1cc(Nc2ncnc3ccc(NC4=NC(C)(C)CO4)cc23)ccc1Oc1ccn2ncnc2c1` [tucatinib], the inhibition at 1 µM in test [1] (setting [16]) was -2.58%; in test [2] (setting [17]) it was -1.73%; in test [3] (setting [18]), -0.547%; in test [4] (setting [19]) it was 3%; in test [5] (setting [20]), 5.71%; in test [6] (setting [21]) it was 8.45%. Moreover, the inhibition at 1 µM in test [7] (setting [22]) was -0.185%; in [8] (setting [23]) it was -2.6%; in test [9] (setting [24]), 4%; in test [10] (setting [25]) it was 3.59%; in test [11] (setting [26]) it was -3%; in test [12] (setting [27]) it was 5.42%. The inhibition at 1 µM in test [13] (setting [28]) was 3.53%; in [14] (setting [29]), -3%; in [15] (setting [30]) it was -3.59%.

On to `C=CC(=O)N1CCC([C@@H]2CCNc3c(C(N)=O)c(-c4ccc(Oc5ccccc5)cc4)nn32)CC1` [zanubrutinib], for which the inhibition at 1 µM is -4% in [1] (setting [16]); -2.24% in test [2] (setting [17]); -5% in [3] (setting [18]); 5.7% in test [4] (setting [19]); 16% in test [5] (setting [20]); 13% in test [6] (setting [21]). The inhibition at 1 µM in [7] (setting [22]) is 4.22%; in [8] (setting [23]), -9%; in test [9] (setting [24]), 7.51%; in test [10] (setting [25]) it was 0.323%; in test [11] (setting [26]), -12%; in test [12] (setting [27]) it was -3.73%. Besides, the figures for the inhibition at 1 µM in test [13] (setting [28]), in test [14] (setting [29]) and in test [15] (setting [30]) were 0.606%, -6% and -11%, respectively.

As for `Cn1cnc2c(F)c(Nc3ccc(Br)cc3F)c(C(=O)NOCCO)cc21` [binimetinib], the inhibition at 1 µM is -4% in [1] (setting [16]); 0.893% in [2] (setting [17]); 0.0301% in [3] (setting [18]); -2.67% in test [4] (setting [19]); 9% in test [5] (setting [20]); 6.52% in test [6] (setting [21]). For the same molecule, the inhibition at 1 µM is -3.26% in test [7] (setting [22]); -4.32% in test [8] (setting [23]); 4.66% in test [9] (setting [24]); -13% in [10] (setting [25]); -11% in test [11] (setting [26]); 0.514% in test [12] (setting [27]). Moreover, the inhibition at 1 µM in [13] (setting [28]) was 5%; in [14] (setting [29]), 0.103%; in [15] (setting [30]), -16%.
